In ChEMBL document CHEMBL1201862, “PubChem BioAssay data set” (2004):
Activity calls are given as the source filed them.

What was measured:
[1] = biological target: T1, Sentrin-specific protease 1 (Homo sapiens, UniProt Q9P0U3); assay: Dose response confirmation of small molecule inhibitors of the catalytic domain of the SUMO protease, SENP1 in a FRET assay.; format: functional; conditions: read-out: IC50_Mean
[2] = biological target: T1, Sentrin-specific protease 1; assay: SENP1 catalytic domain blockers, concentration series – biochemical, kinetic FRET, dose response (AID 651697); format: functional; conditions: read-out: IC50_Mean
[3] = NIH3T3 cell viability loss – ATP luminescence, mouse fibroblasts, counter-screen, dose response (AID 2010); format: functional, cell-based;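 note: cells exposed to compound for about 90 hours before reading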
[4] = viability of HCT116 lacking mutant beta-catenin – cell-based, human colon tumor, dose response (AID 1045); format: functional;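 note: HCT116 colon tumor cells with beta catenin knocked out; cells exposed to compound for 60 hours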
[5] = viability of PTEN-deleted HCT116 cells – cell-based, HCT116 PTEN knockout, dose response (AID 1047); format: functional;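 note: HCT116 colon tumor cells with PTEN knocked out; cells exposed to compound for 60 hours before readout; potency for loss of cell viability measured by luminescence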
[6] = Counterscreen for activators of the function of SWI/SNF related, matrix associated, actin dependent regulator of chromatin, subfamily a, member 2 (SMARCA2, BRM): Luminescence-based cell-based high throughput dose response assay to identify non-selective compounds using the VP16 reporter assay.; format: functional
[7] = biological target: DNA (cytosine-5)-methyltransferase 1 (Homo sapiens, UniProt P26358); assay: inhibition of DNA methylation by DNMT1 – biochemical, fluorescent molecular beacon, confirmation (AID 602386); format: functional
Nonstructural protein 1 = Nonstructural protein 1 (Influenza A virus, UniProt Q194T2); format: functional, Influenza A virus (A/California/07/2009(H1N1))
[8] = Trypanosoma cruzi growth suppression in host cells – NIH3T3 host cells, beta-gal luminescence, confirmation (AID 2044); format: functional, cell-based;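 note: intracellular parasites grown in NIH/3T3 mouse fibroblasts as host cells; luminescent beta-galactosidase reporter signal from transgenic T. cruzi replicating inside host cells; inhibitors lower the luminescence signal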
[9] = acridine orange displacement from DNA – biochemical, fluorescence polarization, cherry-pick, artefact control for RAD54 inhibitor project, dose response (AID 651673); format: functional
[10] = biological target: T2, DNA repair and recombination protein RAD54-like (Homo sapiens, UniProt Q92698); assay: RAD54 Holliday junction migration blockers – biochemical, fluorescence, cherry-picked samples, dose series, confirmation (AID 651657); format: functional
T2 sequence (Q92698 whole entry): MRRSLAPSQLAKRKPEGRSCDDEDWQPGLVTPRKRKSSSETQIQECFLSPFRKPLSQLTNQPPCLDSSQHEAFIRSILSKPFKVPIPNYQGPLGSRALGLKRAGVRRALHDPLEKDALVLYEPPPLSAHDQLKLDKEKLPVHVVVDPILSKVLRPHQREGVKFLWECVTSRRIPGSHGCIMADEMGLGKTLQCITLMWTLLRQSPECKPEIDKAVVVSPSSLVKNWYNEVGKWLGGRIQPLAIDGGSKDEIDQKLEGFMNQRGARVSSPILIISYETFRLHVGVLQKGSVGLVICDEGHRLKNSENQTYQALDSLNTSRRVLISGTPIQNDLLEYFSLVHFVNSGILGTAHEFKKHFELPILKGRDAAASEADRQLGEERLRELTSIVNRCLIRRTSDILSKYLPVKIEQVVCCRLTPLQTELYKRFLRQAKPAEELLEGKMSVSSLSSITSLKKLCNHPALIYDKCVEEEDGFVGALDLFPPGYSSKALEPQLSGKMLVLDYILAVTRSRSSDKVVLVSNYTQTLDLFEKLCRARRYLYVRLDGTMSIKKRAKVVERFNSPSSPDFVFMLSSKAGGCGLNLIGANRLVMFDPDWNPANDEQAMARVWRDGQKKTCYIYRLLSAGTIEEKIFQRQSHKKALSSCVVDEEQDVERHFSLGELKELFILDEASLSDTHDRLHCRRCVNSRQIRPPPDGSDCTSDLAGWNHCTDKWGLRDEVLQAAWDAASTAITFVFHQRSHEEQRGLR

[11] = biological target: SWI/SNF-related matrix-associated actin-dependent regulator of chromatin subfamily A member 2 (Homo sapiens, UniProt P51531); assay: Luminescence-based cell-based high throughput dose response assay to identify activators of the function of SWI/SNF related, matrix associated, actin dependent regulator of chromatin, subfamily a, member 2 (SMARCA2, BRM).; format: functional
Sequence of SWI/SNF-related matrix-associated actin-dependent regulator of chromatin subfamily A member 2 (P51531 whole entry): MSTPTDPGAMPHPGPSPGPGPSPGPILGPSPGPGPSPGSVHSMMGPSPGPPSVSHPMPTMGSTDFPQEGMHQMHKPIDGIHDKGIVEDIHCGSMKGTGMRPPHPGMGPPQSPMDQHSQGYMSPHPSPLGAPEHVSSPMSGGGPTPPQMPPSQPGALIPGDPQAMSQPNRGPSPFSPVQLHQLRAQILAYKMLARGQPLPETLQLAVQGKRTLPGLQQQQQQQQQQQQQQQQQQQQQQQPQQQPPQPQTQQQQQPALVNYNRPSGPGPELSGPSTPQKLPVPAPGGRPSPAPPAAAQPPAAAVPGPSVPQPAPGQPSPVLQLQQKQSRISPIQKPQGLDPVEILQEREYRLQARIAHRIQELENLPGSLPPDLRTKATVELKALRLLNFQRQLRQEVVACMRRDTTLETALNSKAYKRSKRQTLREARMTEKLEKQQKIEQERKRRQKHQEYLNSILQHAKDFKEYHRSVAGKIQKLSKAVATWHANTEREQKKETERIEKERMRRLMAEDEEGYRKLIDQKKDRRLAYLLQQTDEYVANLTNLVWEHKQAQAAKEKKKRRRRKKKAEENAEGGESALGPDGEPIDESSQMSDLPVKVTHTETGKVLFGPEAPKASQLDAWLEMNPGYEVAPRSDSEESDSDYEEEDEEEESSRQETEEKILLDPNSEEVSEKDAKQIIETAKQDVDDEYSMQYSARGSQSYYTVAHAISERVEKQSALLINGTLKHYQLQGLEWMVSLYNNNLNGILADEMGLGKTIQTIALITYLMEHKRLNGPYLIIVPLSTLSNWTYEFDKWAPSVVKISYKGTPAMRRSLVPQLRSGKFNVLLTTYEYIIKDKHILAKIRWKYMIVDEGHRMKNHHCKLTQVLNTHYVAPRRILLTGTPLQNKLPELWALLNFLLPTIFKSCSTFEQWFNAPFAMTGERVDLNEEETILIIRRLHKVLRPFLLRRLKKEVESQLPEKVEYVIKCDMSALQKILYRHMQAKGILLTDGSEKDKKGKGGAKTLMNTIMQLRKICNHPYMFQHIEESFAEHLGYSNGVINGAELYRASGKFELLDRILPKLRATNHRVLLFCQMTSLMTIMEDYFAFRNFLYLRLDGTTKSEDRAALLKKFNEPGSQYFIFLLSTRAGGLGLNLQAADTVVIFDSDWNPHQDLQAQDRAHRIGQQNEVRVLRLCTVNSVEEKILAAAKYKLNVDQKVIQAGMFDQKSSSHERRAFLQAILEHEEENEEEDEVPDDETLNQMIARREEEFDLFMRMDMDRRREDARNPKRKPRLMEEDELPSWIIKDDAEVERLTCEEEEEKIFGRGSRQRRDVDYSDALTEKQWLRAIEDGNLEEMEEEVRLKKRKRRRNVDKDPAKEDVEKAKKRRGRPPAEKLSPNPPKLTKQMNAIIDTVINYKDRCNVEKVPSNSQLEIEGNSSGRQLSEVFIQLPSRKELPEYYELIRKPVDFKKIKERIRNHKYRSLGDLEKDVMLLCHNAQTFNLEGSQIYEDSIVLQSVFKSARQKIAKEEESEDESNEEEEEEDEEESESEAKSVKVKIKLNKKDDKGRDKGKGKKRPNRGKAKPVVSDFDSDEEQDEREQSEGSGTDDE

T1 sequence (Q9P0U3 whole entry, the tested form may be a part): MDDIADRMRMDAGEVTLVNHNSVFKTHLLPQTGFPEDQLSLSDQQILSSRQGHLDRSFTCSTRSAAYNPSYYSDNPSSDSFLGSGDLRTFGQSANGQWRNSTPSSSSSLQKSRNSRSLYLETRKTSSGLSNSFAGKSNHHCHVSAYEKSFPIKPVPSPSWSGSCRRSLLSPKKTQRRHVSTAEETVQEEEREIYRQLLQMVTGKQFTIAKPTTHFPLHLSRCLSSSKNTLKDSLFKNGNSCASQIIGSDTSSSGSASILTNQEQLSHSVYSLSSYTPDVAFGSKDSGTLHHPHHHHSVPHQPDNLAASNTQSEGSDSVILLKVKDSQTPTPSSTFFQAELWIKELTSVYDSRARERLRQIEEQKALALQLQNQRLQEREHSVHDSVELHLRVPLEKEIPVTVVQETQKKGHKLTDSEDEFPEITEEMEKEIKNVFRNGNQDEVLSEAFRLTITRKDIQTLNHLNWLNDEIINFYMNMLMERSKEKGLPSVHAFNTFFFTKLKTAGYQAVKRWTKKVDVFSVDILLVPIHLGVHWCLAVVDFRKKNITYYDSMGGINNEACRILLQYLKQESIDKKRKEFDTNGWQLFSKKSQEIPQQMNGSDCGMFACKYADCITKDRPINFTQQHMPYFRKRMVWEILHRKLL
Sequence of DNA (cytosine-5)-methyltransferase 1 (P26358 whole entry): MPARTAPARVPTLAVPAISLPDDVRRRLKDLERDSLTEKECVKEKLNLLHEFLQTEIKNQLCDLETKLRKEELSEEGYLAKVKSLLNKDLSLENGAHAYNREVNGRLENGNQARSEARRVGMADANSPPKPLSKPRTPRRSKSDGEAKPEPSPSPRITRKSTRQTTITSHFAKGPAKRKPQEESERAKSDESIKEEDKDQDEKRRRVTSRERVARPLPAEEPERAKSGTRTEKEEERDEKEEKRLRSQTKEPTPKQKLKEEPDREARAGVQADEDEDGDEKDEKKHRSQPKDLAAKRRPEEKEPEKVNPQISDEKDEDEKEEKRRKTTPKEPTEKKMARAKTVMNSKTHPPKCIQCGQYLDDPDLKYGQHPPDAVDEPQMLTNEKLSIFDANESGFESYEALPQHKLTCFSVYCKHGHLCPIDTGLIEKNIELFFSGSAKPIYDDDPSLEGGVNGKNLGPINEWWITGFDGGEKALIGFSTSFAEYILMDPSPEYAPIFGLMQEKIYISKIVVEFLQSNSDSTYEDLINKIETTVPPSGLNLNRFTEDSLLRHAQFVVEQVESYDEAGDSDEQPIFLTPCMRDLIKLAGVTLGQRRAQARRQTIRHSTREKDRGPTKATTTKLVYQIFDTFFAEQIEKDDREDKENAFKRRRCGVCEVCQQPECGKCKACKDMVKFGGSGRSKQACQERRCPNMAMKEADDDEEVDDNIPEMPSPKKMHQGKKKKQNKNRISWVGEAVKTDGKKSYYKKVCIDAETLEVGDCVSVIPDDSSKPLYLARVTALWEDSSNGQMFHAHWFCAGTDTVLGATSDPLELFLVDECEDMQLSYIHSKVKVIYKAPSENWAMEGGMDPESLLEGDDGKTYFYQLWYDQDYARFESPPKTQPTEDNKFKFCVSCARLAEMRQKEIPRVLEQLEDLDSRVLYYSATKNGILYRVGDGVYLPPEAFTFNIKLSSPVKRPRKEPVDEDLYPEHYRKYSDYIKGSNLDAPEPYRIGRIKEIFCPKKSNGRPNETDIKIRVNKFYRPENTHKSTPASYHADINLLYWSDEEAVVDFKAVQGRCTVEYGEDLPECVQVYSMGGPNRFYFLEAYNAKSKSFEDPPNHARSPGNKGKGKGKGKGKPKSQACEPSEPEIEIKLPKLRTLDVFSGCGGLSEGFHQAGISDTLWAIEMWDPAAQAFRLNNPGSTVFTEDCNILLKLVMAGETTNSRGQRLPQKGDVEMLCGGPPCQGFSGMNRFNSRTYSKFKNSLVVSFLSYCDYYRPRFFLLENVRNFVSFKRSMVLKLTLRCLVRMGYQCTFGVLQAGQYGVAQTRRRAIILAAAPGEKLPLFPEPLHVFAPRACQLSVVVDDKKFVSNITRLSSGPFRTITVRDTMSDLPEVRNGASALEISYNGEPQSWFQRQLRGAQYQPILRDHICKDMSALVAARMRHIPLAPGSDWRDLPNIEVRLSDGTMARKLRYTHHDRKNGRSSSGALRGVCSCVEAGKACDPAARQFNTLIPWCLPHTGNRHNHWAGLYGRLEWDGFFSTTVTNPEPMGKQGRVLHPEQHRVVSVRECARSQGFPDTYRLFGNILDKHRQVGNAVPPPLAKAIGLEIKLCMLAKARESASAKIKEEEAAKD
Sequence of Nonstructural protein 1 (Q194T2 whole entry): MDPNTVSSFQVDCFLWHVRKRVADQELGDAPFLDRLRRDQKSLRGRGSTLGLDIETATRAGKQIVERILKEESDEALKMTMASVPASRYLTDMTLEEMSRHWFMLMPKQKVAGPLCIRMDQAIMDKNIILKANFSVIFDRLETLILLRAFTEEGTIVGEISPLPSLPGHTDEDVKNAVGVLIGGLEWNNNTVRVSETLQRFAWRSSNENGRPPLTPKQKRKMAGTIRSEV

SMILES	IC50 [1]	IC50 [2]	EC50 [3]	EC50 [4]	EC50 [5]	EC50 [6]	IC50 [7]	IC50 (Nonstructural protein 1)	EC50 [8]	AC50 [9]	AC50 [10]	EC50 [11]
Cc1cc(C)c(Cn2c(C(=O)O)c(C=O)c3ccccc32)c(C)c1	20.8 µM (inactive)	16.9 µM (active)	–	–	–	–	–	–	–	–	–	–
CCN(CC)CCNc1nc2cc(OC)c(OC)cc2c2nc(-c3ccccc3)nn12	–	–	> 30 µM (not active)	3.48 µM (active)	4.9 µM (active)	> 91.2 µM (inactive)	> 99 µM (inactive)	> 100 µM (active)	0.678 µM (active)	51.8 µM (active)	1.92 µM (active)	> 91.2 µM (inactive)
